The values below come from PubChem BioAssay (NCI).

Some test systems named below: MDA-MB-435; HCC-2998 colon; MALME-3M melanoma; A549 NSCLC; NCI-H522 lung; SN12C renal; U251 CNS; HOP-62 NSCLC; SK-MEL-2 melanoma; HCT-15 colon.
Assay in all cases: inhibition of tumour cell growth, NCI panel, 48 h

The structures appear in SMILES notation. Where “and” joins values, the source holds several entries; their conditions need not be identical. Equal values may be shown once.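 In this assay, cells in 96-well plates receive the compound at five concentrations for 48 hours. Endpoints are linearly interpolated between the surrounding concentrations. GI50: concentration for 50% inhibition of growth. The concentration for full growth arrest is given as TGI.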

As to `CSc1nnc(-c2cc3c([nH]c4ccccc43)c(-c3cccc(O)c3)n2)n1-c1ccc(C)cc1`, the GI50 was 1.32 µM in the experiment on MDA-MB-435; 12.3 µM with HCC-2998 colon; 1.88 µM in the experiment on MALME-3M melanoma; 3.79 µM with A549 NSCLC; 2.26 µM with NCI-H522 lung; 5.83 µM with SN12C renal. Besides, the GI50 is 4.84 µM in the experiment on U251 CNS, 2.47 µM in the experiment on HOP-62 NSCLC, 2.11 µM in the experiment on SK-MEL-2 melanoma and 3.55 µM with HCT-15 colon. Further, the TGI with MDA-MB-435 was 11.2 µM; in the experiment on HCC-2998 colon, over 100 µM; with MALME-3M melanoma, 5.4 µM; with A549 NSCLC, 24.6 µM; with NCI-H522 lung, 11.1 µM; with SN12C renal, 81.6 µM. Besides, the TGI was 28.7 µM in the experiment with U251 CNS, 7.45 µM with HOP-62 NSCLC, 6.61 µM with SK-MEL-2 melanoma and over 100 µM in the experiment on HCT-15 colon.
Regarding `C[C@@]1(C(=O)O)CCC[C@]2(C)C1CC[C@]13C[C@@](O)(CO)[C@](O)(CC[C@]12O)C3` (stereo not given in full), the GI50 in the experiment on MDA-MB-435, with HCC-2998 colon, in the experiment on MALME-3M melanoma, in the experiment with A549 NSCLC, in the experiment with NCI-H522 lung and in the experiment on SN12C renal was over 100 µM in each case. Further, the GI50 with U251 CNS, in the experiment with HOP-62 NSCLC, in the experiment on SK-MEL-2 melanoma and in the experiment on HCT-15 colon was over 100 µM each time. For the same molecule, the TGI with MDA-MB-435, with HCC-2998 colon, in the experiment with MALME-3M melanoma, in the experiment on A549 NSCLC, in the experiment on NCI-H522 lung and in the experiment with SN12C renal was over 100 µM each time. For the same molecule, the TGI in the experiment with U251 CNS, in the experiment on HOP-62 NSCLC, in the experiment with SK-MEL-2 melanoma and in the experiment with HCT-15 colon was over 100 µM throughout.
Consider `CCCCSc1nc(N)c2cn[nH]c2n1`, for which the GI50 was 21 µM in the experiment on MDA-MB-435; 0.22 µM in the experiment on HCC-2998 colon; 24.6 µM in the experiment with MALME-3M melanoma; 27.6 µM with A549 NSCLC; 20.7 µM in the experiment with NCI-H522 lung; 12.8 µM with SN12C renal. The GI50 is 28.1 µM in the experiment with U251 CNS, 22.5 µM in the experiment with HOP-62 NSCLC, 22.2 µM in the experiment with SK-MEL-2 melanoma and 32.9 µM in the experiment with HCT-15 colon. Moreover, the TGI with MDA-MB-435 was 41.8 µM; in the experiment with HCC-2998 colon, 2.26 µM; with MALME-3M melanoma, 42.9 µM; in the experiment with A549 NSCLC it was over 73.6 µM; in the experiment on NCI-H522 lung, 49.6 µM; with SN12C renal it was 28.5 µM. In addition, the TGI was over 64.1 µM with U251 CNS, 48.8 µM in the experiment with HOP-62 NSCLC, over 64.6 µM in the experiment on SK-MEL-2 melanoma and over 100 µM in the experiment on HCT-15 colon.
For `[Cl][Hg][c]1ccc2ccccc2c1`, the GI50 is 1.68 µM in the experiment on MDA-MB-435; 2.57 µM with HCC-2998 colon; 1.78 µM with MALME-3M melanoma; 12.1 µM in the experiment with A549 NSCLC; 0.821 µM with NCI-H522 lung; 1.76 µM with SN12C renal. Also, the GI50 in the experiment with U251 CNS was 1.31 µM; in the experiment on HOP-62 NSCLC, 3.93 µM; in the experiment on SK-MEL-2 melanoma it was 1.6 µM; with HCT-15 colon it was 1.58 µM. Moreover, the TGI with MDA-MB-435 amounted to 3.44 µM; in the experiment on HCC-2998 colon, 7.21 µM; with MALME-3M melanoma it was 3.4 µM; in the experiment with A549 NSCLC it was 27.1 µM; in the experiment on NCI-H522 lung it was 2.37 µM; with SN12C renal, 3.57 µM. Moreover, the TGI in the experiment with U251 CNS came out at 2.68 µM; in the experiment on HOP-62 NSCLC it was 11.8 µM; in the experiment with SK-MEL-2 melanoma, 3.92 µM; in the experiment on HCT-15 colon it was 3.18 µM.
For the molecule `Cn1cc(C2=C(c3cc[nH]c3)C(=O)NC2=O)c2ccccc21`, the GI50 is 19.7 µM in the experiment with MDA-MB-435; over 25 µM with HCC-2998 colon; over 25 µM with MALME-3M melanoma; over 25 µM in the experiment with A549 NSCLC; 24.3 µM in the experiment with NCI-H522 lung; over 25 µM with SN12C renal. In addition, the GI50 in the experiment with U251 CNS, in the experiment on HOP-62 NSCLC, in the experiment with SK-MEL-2 melanoma and in the experiment with HCT-15 colon was over 25 µM each time. The TGI in the experiment with MDA-MB-435, with HCC-2998 colon, with MALME-3M melanoma, with A549 NSCLC, with NCI-H522 lung and in the experiment on SN12C renal was over 25 µM each time. For the same molecule, the TGI with U251 CNS, with HOP-62 NSCLC, in the experiment on SK-MEL-2 melanoma and in the experiment on HCT-15 colon was over 25 µM each time.
Take `Cc1cc2c3c([n+](C)c4ccc(F)cc4c3c1)-c1cc(F)ccc1N2C`: the GI50 in the experiment with MDA-MB-435 is 13.7 µM; in the experiment with HCC-2998 colon, 3.99 µM; in the experiment with MALME-3M melanoma, 4.19 µM; in the experiment on A549 NSCLC, 43.5 µM; in the experiment on NCI-H522 lung it was 6.86 µM; with SN12C renal, 2.34 µM. Besides, the GI50 in the experiment with U251 CNS was 1.69 µM; in the experiment with HOP-62 NSCLC, 9.84 µM; with SK-MEL-2 melanoma it was 10.9 µM; in the experiment with HCT-15 colon it was over 100 µM. In addition, the TGI in the experiment on MDA-MB-435 was 55 µM; with HCC-2998 colon it was 16.5 µM; in the experiment on MALME-3M melanoma, 17.2 µM; with A549 NSCLC it was over 100 µM; with NCI-H522 lung, 29.4 µM; in the experiment on SN12C renal, 23.5 µM. In addition, the TGI with U251 CNS was over 100 µM; in the experiment on HOP-62 NSCLC, over 100 µM; in the experiment on SK-MEL-2 melanoma, 28.6 µM; with HCT-15 colon it was over 100 µM.
For `CC(C)c1[nH]nc2c(NCc3ccc(-c4ccccn4)cc3)nc(SCCN)nc12`, the GI50 with MDA-MB-435 is 0.00422 µM; with HCC-2998 colon, 0.025 µM; in the experiment with MALME-3M melanoma, 0.016 µM; in the experiment with A549 NSCLC, 0.0306 µM and 0.0159 µM; in the experiment with NCI-H522 lung it was 0.00326 µM; in the experiment on SN12C renal, 0.0238 µM. The GI50 with U251 CNS was 0.028 µM and 0.0205 µM; in the experiment on HOP-62 NSCLC it was 0.0247 µM and 0.0206 µM; in the experiment on SK-MEL-2 melanoma, 0.0306 µM; in the experiment with HCT-15 colon, 0.672 µM and 0.683 µM. For the same molecule, the TGI is 1.08 µM and 1.07 µM in the experiment on MDA-MB-435; 1.08 µM in the experiment with HCC-2998 colon; 0.0598 µM in the experiment with MALME-3M melanoma; 12.2 µM in the experiment on A549 NSCLC; 0.147 µM with NCI-H522 lung; 0.185 µM with SN12C renal. For the same molecule, the TGI is 11.5 µM with U251 CNS; 0.604 µM and 0.187 µM with HOP-62 NSCLC; 0.105 µM in the experiment on SK-MEL-2 melanoma; 10.9 µM in the experiment with HCT-15 colon.
With `CN(C)C(=S)/N=c1\ssc(=S)n1Cc1ccco1`, the TGI was 1.95 µM in the experiment on MDA-MB-435; over 100 µM in the experiment on HCC-2998 colon; over 100 µM in the experiment on MALME-3M melanoma; over 100 µM in the experiment on A549 NSCLC; 2.07 µM in the experiment on NCI-H522 lung; over 100 µM with SN12C renal. Also, the TGI was over 47.4 µM with U251 CNS, over 63.1 µM in the experiment on HOP-62 NSCLC, 30.3 µM with SK-MEL-2 melanoma and over 100 µM in the experiment on HCT-15 colon.
Regarding `O=C(N/N=C/c1cc(Cl)ccc1O)c1ccccc1Nc1ccnc(C(F)(F)F)c1`, the GI50 in the experiment on MDA-MB-435 is 1.16 µM; in the experiment with HCC-2998 colon, 0.476 µM; in the experiment on MALME-3M melanoma, 0.839 µM; in the experiment with A549 NSCLC, 1.26 µM; in the experiment with NCI-H522 lung, 0.689 µM; in the experiment on SN12C renal, 1.23 µM. The GI50 was 0.335 µM with U251 CNS, 0.334 µM with HOP-62 NSCLC, 2.71 µM in the experiment on SK-MEL-2 melanoma and 0.152 µM in the experiment with HCT-15 colon. The TGI amounted to 16.9 µM in the experiment with MDA-MB-435; 17.1 µM in the experiment on HCC-2998 colon; 5.29 µM in the experiment with MALME-3M melanoma; 23.3 µM in the experiment with A549 NSCLC; 6.53 µM in the experiment with NCI-H522 lung; 10.2 µM with SN12C renal. Further, the TGI came to 9.41 µM with U251 CNS, 3.65 µM in the experiment with HOP-62 NSCLC, 19.9 µM with SK-MEL-2 melanoma and 13.6 µM with HCT-15 colon.
Take `COc1cc(C2c3cc4c(cc3[C@@H](Nc3ccc([N+](=O)[O-])cc3)C3COC(=O)[C@H]23)OCO4)cc(OC)c1O` (stereo not given in full): the TGI in the experiment on MDA-MB-435 is over 100 µM; with HCC-2998 colon, 7.01 µM; with MALME-3M melanoma it was 10.5 µM; with A549 NSCLC, 3.72 µM; in the experiment on NCI-H522 lung it was 5.42 µM; in the experiment with SN12C renal, 7.96 µM. Besides, the TGI in the experiment on U251 CNS was 7.69 µM; in the experiment on HOP-62 NSCLC, 0.947 µM and 2.07 µM; in the experiment with SK-MEL-2 melanoma it was 10.7 µM; in the experiment with HCT-15 colon, 19.6 µM. Moreover, the GI50 in the experiment on MALME-3M melanoma is 0.943 µM; in the experiment with A549 NSCLC it was 0.157 µM and 0.166 µM; in the experiment on NCI-H522 lung it was 0.733 µM; in the experiment on SN12C renal, 0.486 µM; in the experiment with U251 CNS, 0.418 µM.
Regarding `Cc1ccc(N=Nc2c(O)ccc3n[nH]nc23)cc1`, the GI50 in the experiment with MDA-MB-435 is 4.47 µM; in the experiment with HCC-2998 colon, 26.2 µM; in the experiment on MALME-3M melanoma, 8.17 µM; with A549 NSCLC, 14.2 µM; in the experiment with NCI-H522 lung, 10.1 µM; with SN12C renal it was 17 µM. Besides, the GI50 was 11.4 µM with U251 CNS, 28 µM with HOP-62 NSCLC, 19 µM in the experiment on SK-MEL-2 melanoma and 12.3 µM with HCT-15 colon. In addition, the TGI is 37.5 µM with MDA-MB-435; over 100 µM in the experiment with HCC-2998 colon; 48 µM with MALME-3M melanoma; over 100 µM with A549 NSCLC; 45.5 µM with NCI-H522 lung; over 100 µM in the experiment with SN12C renal. Also, the TGI with U251 CNS was over 100 µM; in the experiment with HOP-62 NSCLC, over 100 µM; in the experiment on SK-MEL-2 melanoma it was 59.4 µM; in the experiment on HCT-15 colon it was 92.4 µM.
`Cc1ccc(NC(=S)C#N)c(C)c1`: the TGI in the experiment on MDA-MB-435 was over 100 µM; with HCC-2998 colon, over 100 µM; in the experiment on MALME-3M melanoma, over 94.9 µM; in the experiment with A549 NSCLC, over 100 µM; with NCI-H522 lung it was over 100 µM; in the experiment on SN12C renal, over 100 µM. The TGI in the experiment on U251 CNS, with HOP-62 NSCLC, with SK-MEL-2 melanoma and in the experiment on HCT-15 colon was over 100 µM throughout.
